{
  "source": "PubChem BioAssay (NCI)",
  "test_in_all_cases": "NCI tumour cell line growth inhibition, 48 h",
  "key": {"BT-549 breast": {"test_system": "BT-549 breast"}, "DU-145 prostate": {"test_system": "DU-145 prostate"}, "HS 578T breast": {"test_system": "HS 578T breast"}, "LXFL 529 NSCLC": {"test_system": "LXFL 529 NSCLC"}, "MCF7 breast": {"test_system": "MCF7 breast"}, "MDA-MB-231 breast": {"test_system": "MDA-MB-231 breast"}, "MDA-MB-435": {"test_system": "MDA-MB-435"}, "MDA-N": {"test_system": "MDA-N"}, "NCI/ADR-RES ovarian": {"test_system": "NCI/ADR-RES ovarian"}, "P388 leukemia": {"test_system": "P388 leukemia"}, "P388/ADR leukemia": {"test_system": "P388/ADR leukemia"}, "PC-3 prostate": {"test_system": "PC-3 prostate"}, "SN12K1 renal": {"test_system": "SN12K1 renal"}, "SW-620 colon": {"test_system": "SW-620 colon"}, "T-47D breast": {"test_system": "T-47D breast"}, "786-0 renal": {"test_system": "786-0 renal"}, "A498 renal": {"test_system": "A498 renal"}, "A549 NSCLC": {"test_system": "A549 NSCLC"}, "ACHN renal": {"test_system": "ACHN renal"}, "CAKI-1 renal": {"test_system": "CAKI-1 renal"}, "CCRF-CEM leukemia": {"test_system": "CCRF-CEM leukemia"}, "COLO 205 colon": {"test_system": "COLO 205 colon"}, "DLD-1 colon": {"test_system": "DLD-1 colon"}, "DMS 273 small cell lung": {"test_system": "DMS 273 small cell lung"}, "EKVX NSCLC": {"test_system": "EKVX NSCLC"}, "HCC-2998 colon": {"test_system": "HCC-2998 colon"}, "HCT-116 colon": {"test_system": "HCT-116 colon"}, "HCT-15 colon": {"test_system": "HCT-15 colon"}, "HL-60(TB) leukemia": {"test_system": "HL-60(TB) leukemia"}, "HOP-18 NSCLC": {"test_system": "HOP-18 NSCLC"}, "HOP-62 NSCLC": {"test_system": "HOP-62 NSCLC"}, "HOP-92 NSCLC": {"test_system": "HOP-92 NSCLC"}, "K-562 leukemia": {"test_system": "K-562 leukemia"}, "KM12 colon": {"test_system": "KM12 colon"}, "KM20L2 colon": {"test_system": "KM20L2 colon"}, "LOX IMVI melanoma": {"test_system": "LOX IMVI melanoma"}, "M14 melanoma": {"test_system": "M14 melanoma"}, "M19-MEL melanoma": {"test_system": "M19-MEL melanoma"}, "MALME-3M melanoma": {"test_system": "MALME-3M melanoma"}, "MOLT-4 leukemia": {"test_system": "MOLT-4 leukemia"}, "NCI-H226 lung": {"test_system": "NCI-H226 lung"}, "NCI-H23 lung": {"test_system": "NCI-H23 lung"}, "NCI-H460 lung": {"test_system": "NCI-H460 lung"}, "NCI-H522 lung": {"test_system": "NCI-H522 lung"}, "OVCAR-3 ovarian": {"test_system": "OVCAR-3 ovarian"}, "OVCAR-5 ovarian": {"test_system": "OVCAR-5 ovarian"}, "OVCAR-8 ovarian": {"test_system": "OVCAR-8 ovarian"}, "RPMI-8226 leukemia": {"test_system": "RPMI-8226 leukemia"}, "RXF 393 renal": {"test_system": "RXF 393 renal"}, "RXF-631 renal": {"test_system": "RXF-631 renal"}, "SF-268 CNS": {"test_system": "SF-268 CNS"}, "SF-295 CNS": {"test_system": "SF-295 CNS"}, "SF-539 CNS": {"test_system": "SF-539 CNS"}, "SK-MEL-2 melanoma": {"test_system": "SK-MEL-2 melanoma"}, "SK-MEL-28 melanoma": {"test_system": "SK-MEL-28 melanoma"}, "SK-OV-3 ovarian": {"test_system": "SK-OV-3 ovarian"}, "SN12C renal": {"test_system": "SN12C renal"}, "SNB-19 CNS": {"test_system": "SNB-19 CNS"}, "SNB-75 CNS": {"test_system": "SNB-75 CNS"}, "SR leukemia": {"test_system": "SR leukemia"}, "TK-10 renal": {"test_system": "TK-10 renal"}, "U251 CNS": {"test_system": "U251 CNS"}, "UACC-257 melanoma": {"test_system": "UACC-257 melanoma"}, "UO-31 renal": {"test_system": "UO-31 renal"}, "XF 498 CNS": {"test_system": "XF 498 CNS"}},
  "note": "Where “and” joins values, the source holds several entries; their conditions need not be identical. Equal values may be shown once.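 Briefly, cells in 96-well plates were exposed to five compound concentrations for 48 h, and endpoints were estimated by linear interpolation. Abbreviation: GI50, concentration required for 50% inhibition of growth. At the TGI there is no net growth.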",
  "data": [
    {"smiles": "COc1cccc2c1C(=O)c1c(O)c3c(c(O)c1C2=O)C[C@@](O)(C(C)=O)C[C@@H]3OC1CC(N(Cc2ccccc2)Cc2ccccc2)C(O)C(C)O1", "note": "(stereo partly drawn)", "values": [
      {"measurement": "TGI", "setting": "BT-549 breast", "result": "> 50", "unit": "µM"},
      {"measurement": "TGI", "setting": "DU-145 prostate", "result": "> 28.1", "unit": "µM"},
      {"measurement": "TGI", "setting": "HS 578T breast", "result": "> 50", "unit": "µM"},
      {"measurement": "GI50", "setting": "LXFL 529 NSCLC", "result": "< 0.01", "unit": "µM"},
      {"measurement": "TGI", "setting": "MCF7 breast", "result": "> 36", "unit": "µM"},
      {"measurement": "TGI", "setting": "MDA-MB-231 breast", "result": "> 28.1", "unit": "µM"},
      {"measurement": "TGI", "setting": "MDA-MB-435", "result": 14, "unit": "µM"},
      {"measurement": "TGI", "setting": "MDA-N", "result": "> 23.2", "unit": "µM"},
      {"measurement": "TGI", "setting": "NCI/ADR-RES ovarian", "result": "> 37.5", "unit": "µM"},
      {"measurement": "TGI", "setting": "P388 leukemia", "result": 12.3, "unit": "µM"},
      {"measurement": "TGI", "setting": "P388/ADR leukemia", "result": "> 50", "unit": "µM"},
      {"measurement": "TGI", "setting": "PC-3 prostate", "result": "> 28.1", "unit": "µM"},
      {"measurement": "TGI", "setting": "SN12K1 renal", "result": "> 46.9", "unit": "µM"},
      {"measurement": "GI50", "setting": "SW-620 colon", "result": "< 0.01 µM and 0.0869 µM"},
      {"measurement": "TGI", "setting": "T-47D breast", "result": "> 28.1", "unit": "µM"}
    ]},
    {"smiles": "C=C1C(=O)C23C(O)CC4C(C)(C)CCC(O)C4(C)C2CC(OC(C)=O)C1[C@H]3O", "note": "(stereo partly drawn)", "values": [
      {"measurement": "TGI", "setting": "786-0 renal", "result": 6.82, "unit": "µM"},
      {"measurement": "TGI", "setting": "A498 renal", "result": 30.9, "unit": "µM"},
      {"measurement": "TGI", "setting": "A549 NSCLC", "result": 13.7, "unit": "µM"},
      {"measurement": "TGI", "setting": "ACHN renal", "result": 8.94, "unit": "µM"},
      {"measurement": "TGI", "setting": "CAKI-1 renal", "result": 9.39, "unit": "µM"},
      {"measurement": "TGI", "setting": "CCRF-CEM leukemia", "result": 2.7, "unit": "µM"},
      {"measurement": "TGI", "setting": "COLO 205 colon", "result": 5.3, "unit": "µM"},
      {"measurement": "TGI", "setting": "DLD-1 colon", "result": 4.65, "unit": "µM"},
      {"measurement": "TGI", "setting": "DMS 273 small cell lung", "result": 3.79, "unit": "µM"},
      {"measurement": "TGI", "setting": "EKVX NSCLC", "result": 16.8, "unit": "µM"},
      {"measurement": "TGI", "setting": "HCC-2998 colon", "result": 14.8, "unit": "µM"},
      {"measurement": "TGI", "setting": "HCT-116 colon", "result": 5.88, "unit": "µM"},
      {"measurement": "TGI", "setting": "HCT-15 colon", "result": 6, "unit": "µM"},
      {"measurement": "TGI", "setting": "HL-60(TB) leukemia", "result": 3.53, "unit": "µM"},
      {"measurement": "TGI", "setting": "HOP-18 NSCLC", "result": 3.82, "unit": "µM"},
      {"measurement": "TGI", "setting": "HOP-62 NSCLC", "result": 28.2, "unit": "µM"},
      {"measurement": "TGI", "setting": "HOP-92 NSCLC", "result": 7.01, "unit": "µM"},
      {"measurement": "TGI", "setting": "HS 578T breast", "result": 53.7, "unit": "µM"},
      {"measurement": "TGI", "setting": "K-562 leukemia", "result": 10.1, "unit": "µM"},
      {"measurement": "TGI", "setting": "KM12 colon", "result": 31.1, "unit": "µM"},
      {"measurement": "TGI", "setting": "KM20L2 colon", "result": 11.1, "unit": "µM"},
      {"measurement": "TGI", "setting": "LOX IMVI melanoma", "result": 15.8, "unit": "µM"},
      {"measurement": "TGI", "setting": "LXFL 529 NSCLC", "result": 2.41, "unit": "µM"},
      {"measurement": "TGI", "setting": "M14 melanoma", "result": 12.1, "unit": "µM"},
      {"measurement": "TGI", "setting": "M19-MEL melanoma", "result": 3.22, "unit": "µM"},
      {"measurement": "TGI", "setting": "MALME-3M melanoma", "result": 9.42, "unit": "µM"},
      {"measurement": "TGI", "setting": "MDA-MB-231 breast", "result": 14.6, "unit": "µM"},
      {"measurement": "TGI", "setting": "MDA-MB-435", "result": 21.4, "unit": "µM"},
      {"measurement": "TGI", "setting": "MDA-N", "result": 20.6, "unit": "µM"},
      {"measurement": "TGI", "setting": "MOLT-4 leukemia", "result": 8.08, "unit": "µM"},
      {"measurement": "TGI", "setting": "NCI-H226 lung", "result": 28.1, "unit": "µM"},
      {"measurement": "TGI", "setting": "NCI-H23 lung", "result": 8.38, "unit": "µM"},
      {"measurement": "TGI", "setting": "NCI-H460 lung", "result": 6.65, "unit": "µM"},
      {"measurement": "TGI", "setting": "NCI-H522 lung", "result": 0.638, "unit": "µM"},
      {"measurement": "TGI", "setting": "NCI/ADR-RES ovarian", "result": 42.9, "unit": "µM"},
      {"measurement": "TGI", "setting": "OVCAR-3 ovarian", "result": 19, "unit": "µM"},
      {"measurement": "TGI", "setting": "OVCAR-5 ovarian", "result": 21.5, "unit": "µM"},
      {"measurement": "TGI", "setting": "OVCAR-8 ovarian", "result": 2.83, "unit": "µM"},
      {"measurement": "TGI", "setting": "PC-3 prostate", "result": 23.7, "unit": "µM"},
      {"measurement": "TGI", "setting": "RPMI-8226 leukemia", "result": "> 32", "unit": "µM"},
      {"measurement": "TGI", "setting": "RXF 393 renal", "result": 5.26, "unit": "µM"},
      {"measurement": "TGI", "setting": "RXF-631 renal", "result": 15.7, "unit": "µM"},
      {"measurement": "TGI", "setting": "SF-268 CNS", "result": 22.1, "unit": "µM"},
      {"measurement": "TGI", "setting": "SF-295 CNS", "result": 21.6, "unit": "µM"},
      {"measurement": "TGI", "setting": "SF-539 CNS", "result": 9.45, "unit": "µM"},
      {"measurement": "TGI", "setting": "SK-MEL-2 melanoma", "result": 5.3, "unit": "µM"},
      {"measurement": "TGI", "setting": "SK-MEL-28 melanoma", "result": 8.19, "unit": "µM"},
      {"measurement": "TGI", "setting": "SK-OV-3 ovarian", "result": 41.4, "unit": "µM"},
      {"measurement": "TGI", "setting": "SN12C renal", "result": 12, "unit": "µM"},
      {"measurement": "TGI", "setting": "SNB-19 CNS", "result": 30.9, "unit": "µM"},
      {"measurement": "TGI", "setting": "SNB-75 CNS", "result": 22.7, "unit": "µM"},
      {"measurement": "TGI", "setting": "SR leukemia", "result": "> 41.1", "unit": "µM"},
      {"measurement": "TGI", "setting": "SW-620 colon", "result": 2.53, "unit": "µM"},
      {"measurement": "TGI", "setting": "TK-10 renal", "result": 3.72, "unit": "µM"},
      {"measurement": "TGI", "setting": "U251 CNS", "result": 22.8, "unit": "µM"},
      {"measurement": "TGI", "setting": "UACC-257 melanoma", "result": 8.38, "unit": "µM"},
      {"measurement": "TGI", "setting": "UO-31 renal", "result": 29.7, "unit": "µM"},
      {"measurement": "TGI", "setting": "XF 498 CNS", "result": 3.33, "unit": "µM"}
    ]}
  ]
}
